In US6603046B1, “Bis-aromatic a,β-unsaturated ketones” (Lica Pharmaceuticals A/S, priority 1992, dated 2003):
Converted amounts (≈) assume the structure as drawn. Like-named read-outs stand apart in the source and are kept apart here.

Columns and labels:
L. major promastigotes = experiment: In vitro growth of L. major promastigotes, 3H-thymidine uptake (Example 4); type: cell-based, Leishmania major; conditions: Leishmania major; for IC50: read-out: concentration for 50% inhibition; for inhibition at 1 µg/mL: 1 μg/ml; for inhibition at 2 µg/mL: 2 μg/ml; for inhibition at 5 µg/mL: 5 μg/ml; for inhibition at 10 µg/mL: 10 μg/ml; for inhibition at 20 µg/mL: 20 μg/ml
L. major amastigotes = L. major amastigotes in human macrophages, Giemsa counting (Example 6); type: cell-based, Leishmania major
Procedure: Macrophage culture. The method used in this study was a modification of the one described by Berman et al. (1979). Human peripheral blood monocytes were obtained by Ficoll-Hypaque fractionation of blood from the Blood Bank, Rigshospitalet, Copenhagen, Denmark. Washed cells were suspended in medium RPMI-199 containing penicillin (50 U/ml), and streptomycin (50 μg/ml), 25 mM Hepes, 4 mM L-glutamine, and 10% heat inactivated fetal calf serum (56° C., 30 min). One milliliter of suspension containing 1×10^6 mononuclear cells was added to each well (16 mm in diameter, with one piece of cover glass in 12 mm diameter) of 24 wells of plastic culture trays (Nunc, Denmark). After 4 h and again after 3 days of incubation at 37° C. in 5% CO2-95% air, old medium was removed and washed with warm fresh medium three times, and then replaced with warm fresh medium.
Infection of macrophages with L. major promastigotes. After 6 days incubation the old medium was removed, and one milliliter of 1×10^7 4 days culture of L. major promastigotes (same promastigotes culture as in Example 4) was added to each well. After 24 h infection, macrophage cultures were washed three times with warm fresh medium and replenished with warm fresh medium with different concentrations of licochalcone A or medium alone. The medium was changed every 3 days. After infection, day 3 and day 6 a certain number of macrophage cultures were fixed with absolute methanol, stained with 5% Giemsa stain for 10 min, and examined by light microscopy (×1,000). The percentage of macrophages that contained amastigotes and the number of amastigotes present per infected macrophage were determined in replicate cultures by counting 200 cells per well.

L. major in U937 cells = experiment: Intracellular parasite killing, parasite survival index (PSI); type: cell-based, Leishmania major; conditions: 1 μg/ml
Procedure: Killing was quantified by a modification of a technique described by Berman et al.
Briefly, 3 days after infection, microtiter well cultures were rinsed once with medium, exposed to 100 μl of prewarmed (37° C.) 0.01% sodium dodecyl-sulfate (SDS) in medium RPMI 1640, and returned to 34° C. for 15 min. By this procedure, macrophages were lysed, according to microscopic observation, and amastigotes were released. 100 μl of medium RPMI 1640 with 20% HFCS were added to each well without removal of the lysing solution. The plates were then transferred to a 26° C. incubator, and amastigotes were left to transform to promastigotes. After 48 h, parasite growth was recorded by adding 1 μCi of ^3H-thymidine (New England Nuclear Corp., Boston, Mass.) to each well. The parasites were harvested 24 h later on glass fiber filters with a harvesting machine (Skatron, Lierbyen, Norway), and ^3H-thymidine incorporation was measured in a liquid scintillation counter (Tricarb; Packard Instrument Co., Inc., Rockville, Md.). The parasite survival index (PSI) was determined. This index is the mean 3H-thymidine incorporation (cpm) in treated infected cells as compared with the untreated infected cells. [formula]

L. pneumophilia = experiment: microbe, parasite or virus in culture; type: cell-based; conditions: Legionella pneumophila
[1] = system: Non-haemolytic streptacocci; experiment: MIC, macrodilution (Example 17); type: cell-based, Non-haemolytic streptococci; conditions: 1 strain
M. tuberculosis = experiment: Radiometric MIC/MBC (Example 19); type: cell-based
Procedure: 63 strains of mycobacteria were used in this study. The bacteria were grown in Dubos broth media before susceptibility testing. Licochalcone A was isolated as described in Example 1. Licochalcone A was dissolved in dimethyl sulfoxide (DMSO) and diluted in distilled water to the desired concentration.
Susceptibility testing was performed radiometrically by using a BECTEC 460-TB apparatus (Becton Dickinson) in a confined atmosphere (5% CO2). […] The growth was expressed as a numerical value called the growth index (GI) which ranged from 1 to 999. The 7H12 vials were inoculated with 0.1 ml of an appropriately diluted Dubos broth culture to give a final inoculum of about 5×10^4 colony-forming units (CFU) per ml together with 0.1 ml of different concentrations of licochalcone A. The final concentrations of licochalcone A tested ranged from 1.25 μg/ml to 80 μg/ml. A vial without licochalcone A, but with an inoculum diluted 1:100, was included as a control. The final inoculum was determinate by culturing 0.1 ml from the control vial onto one Lowenstein-Jensen slant. The vials were incubated under stationary conditions at 35° C. and growth was monitored by daily GI determination for 7 days. At day 7, 0.1 ml from each vial with a GI reading <30 was cultured onto one Lowenstein-Jensen slant. Colony counts were enumerated after incubation at 35° C. for 3 weeks.

BCG = type: cell-based; conditions: n = 3
[2] = read-out: percentage inhibition of 3H-thymidine uptake (mean ± SEM), 3-day culture
[3] = read-out: percentage inhibition of 3H-thymidine uptake (mean ± SEM), 6-day culture

## C=CC(C)(C)c1cc(/C=C/C(=O)c2ccc(O)cc2)c(OC)cc1O [Licochalcone A, licochalcone A]
L. major promastigotes; log phase promastigotes
  IC50: 2 to 5 µg/mL (≈ 5.91 to 14.8 µM)
L. major promastigotes; [2]
  inhibition at 1 µg/mL: 3.6 ± 11.5%
  inhibition at 2 µg/mL: 14.8 ± 21.5%
  inhibition at 5 µg/mL: 63.9 ± 13%
  inhibition at 10 µg/mL: 91.9 ± 8.4%
  inhibition at 20 µg/mL: 96 ± 7.5%
L. major promastigotes; [3]
  inhibition at 1 µg/mL: 15.8 ± 16.5%
  inhibition at 2 µg/mL: 42.6 ± 19.7%
  inhibition at 5 µg/mL: 80.7 ± 6.4%
  inhibition at 10 µg/mL: 96.4 ± 1.2%
  inhibition at 20 µg/mL: 99.4 ± 1.1%
L. major promastigotes; stationary phase promastigotes
  IC50: ~2 µg/mL (≈ 5.91 µM)
L. major amastigotes; 1 μg/ml, 3-day
  number of amastigotes/100 macrophages: 54
  number of infected macrophages/100 macrophages: 43
L. major amastigotes; 1 μg/ml, 6-day
  number of amastigotes/100 macrophages: 45/45/100
  number of infected macrophages/100 macrophages: 45/45/100
L. major amastigotes; 5 μg/ml, 3-day
  number of amastigotes/100 macrophages: 18
  number of infected macrophages/100 macrophages: 7
L. major amastigotes; 5 μg/ml, 6-day
  number of amastigotes/100 macrophages: 11
  number of infected macrophages/100 macrophages: 5
L. major amastigotes; 10 μg/ml, 3-day
  number of amastigotes/100 macrophages: 10
  number of infected macrophages/100 macrophages: 5
L. major amastigotes; 10 μg/ml, 6-day
  number of amastigotes/100 macrophages: 6
  number of infected macrophages/100 macrophages: 4
L. major in U937 cells
  PSI index: about 5%
L. pneumophilia; L. pneumophilia serogr. 1, 4 strains
  MIC: 1 to 4 µg/mL (≈ 2.96 to 11.8 µM)
L. pneumophilia; L. pneumophilia serogr. 2-7, 6 strains
  MIC: 2 to 4 µg/mL (≈ 5.91 to 11.8 µM)
L. pneumophilia; read-out: MIC-values, clinical isolates
  MIC: 1 to 4 µg/mL (≈ 2.96 to 11.8 µM)
[1]
  MIC: 4 µg/mL (≈ 11.8 µM)
M. tuberculosis; n = 2
  meanMIC (second line): meanMIC = 40 μg/ml (n = 2)
M. tuberculosis; n = 19
  meanMIC: meanMIC = 7.1 μg/ml
  rangeMIC: rangeMIC = 5-10 μg/ml (n = 19)
BCG
  meanMIC: meanMIC = 8.6 μg/ml
  meanMIC (second line): meanMIC = 40 μg/ml (n = 3)
  rangeMIC: rangeMIC = 5-10 /ml (n = 3)
